Inconclusive results are not listed. Active and inactive are the calls of the source.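 How the source made its calls: active means compounds cutting cell count with a fitted half-maximal dose below twice the top dose, in every run; inconclusive means runs disagree, flat partial cut, or poor curve fit; inactive means every run called inactive.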
Tested on: not listed separately
Assay: growth inhibition of CAPAN-1 cells, dose response, cell-based, imaging, dry powder, set 2 (AID 743275)
Settings: CAPAN-1 cell number, Hoechst imaging, 14 days; at 26 µM (top of the series)

Structure (SMILES)	activity change, negative = inhibition
COc1ccc2nc(NCCNC(=S)NCCCN3CCOCC3)c(C#N)cc2c1	-10.2% (inactive)
Cc1cc(N2CCN(C)CC2)nc2ccc(NC(=S)N3CCN(c4ccc(Cl)cc4)CC3)cc12	16.1% (inactive)

Same assay, conditions: CAPAN-1 cell number, Hoechst imaging, 14 days; at 50 µM (top of the series)

Structure (SMILES)	activity change, negative = inhibition
CCCN(CCC)CCCNC(=S)Nc1ccc2nc(N3CCN(CC)CC3)cc(C)c2c1	-17.4% (inactive)
CCN(CC)CCCN(Cc1cc2cc3c(cc2[nH]c1=O)OCO3)C(=S)NCCCN(C)C	15% (inactive)
c1ccc(-c2cc(N3CCC(N4CCCC4)CC3)n3nccc3n2)cc1	15.5% (inactive)
CN1CCCN(c2cc(-c3ccccc3)nc3ccnn23)CC1	-7.07% (inactive)
CCCNc1nc(Cl)nc(NCc2cccnc2)n1	4.33% (inactive)
COc1ccc(-c2nn(C)c3sc(C(=O)NCCCN4CCOCC4)cc23)cc1OC	-37% (inactive)
CN(C)CCCN(C(=O)c1nc2ccccc2s1)c1nc2ccc(F)cc2s1	-18.3% (inactive)
O=c1c2c(-c3ccccc3)csc2nc2c3ccccc3c(NCCN3CCOCC3)nn12	-2.92% (inactive)
CN(C)CCCNC(=S)N(CCN(C)C)Cc1cc2cc3c(cc2[nH]c1=O)OCCO3	-7.72% (inactive)
CN(C)c1ccc(Nc2nc(N)c3ccccc3n2)cc1	-26.6% (inactive)
CCN(CC)CCNc1nc(SC)nc2sc3c(c12)CCN(C)C3	7.64% (inactive)
Cc1cc(C)c2c(c1)c1nnc(SCCN3CCCCC3)nc1n2C	6.3% (inactive)
c1ccc(-c2cc(N3CCN(CCN4CCCC4)CC3)n3nccc3n2)cc1	-9.44% (inactive)
COc1nc(NCc2ccccc2)nc(NCc2cccnc2)n1	-3.86% (inactive)
CN1CCN(c2ccc(NC(=O)c3cc(S(N)(=O)=O)ccc3N3CCOCC3)cc2)CC1	4.65% (inactive)
CCCN1CCN(CCCNC(=S)Nc2ccc3nc(N4CCN(CC)CC4)cc(C)c3c2)CC1	0.584% (inactive)
COc1ccc(-c2oc3ncnc(NCCCN4CCOCC4)c3c2-c2ccc(OC)cc2)cc1	20.8% (inactive)
COc1ccccc1Nc1nc(NCCO)c2ccccc2n1	-17.4% (inactive)
Cc1ccc(C(=O)c2oc3ccccc3c2NC(=O)CN2CCN(C)CC2)cc1	9.01% (inactive)
Cc1cc(N2CCN(C)CC2)nc2ccc(NC(=S)NCCCN3CCc4ccccc4C3)cc12	5.99% (inactive)
Cc1nccn1Cc1ccc(NC(=O)c2cccc(NC(=O)c3cccnc3)c2)cc1	12.8% (inactive)
CN1CCN(CC(=O)Nc2c(C(=O)c3ccccc3)oc3ccccc23)CC1	-11.9% (inactive)
OCCNc1nc(Nc2ccccc2F)nc2ccccc12	25.7% (inactive)
Cc1cc(N2CCN(C)CC2)nc2ccc(NC(=S)NCCCN3CCN(C)CC3)cc12	14.2% (inactive)
CCNC(=O)Nc1ccc2nc(N3CCN(C)CC3)cc(C)c2c1	20.3% (inactive)
CN(CCCN1CCOCC1)c1cc(-c2ccc(F)cc2)nc2ccnn12	-17.6% (inactive)

Tested on: CAPAN-1 cell number, Hoechst imaging, 14 days
Assay: as above
Settings: not given

Structure (SMILES)	AC50
CCN1CCN(C(=S)Nc2ccc3nc(N4CCN(C)CC4)cc(C)c3c2)CC1	26.7 µM
CN(C)CCCNC(=S)NCC(c1ccc(Cl)cc1Cl)c1c[nH]c2ccccc12 (stereo not given)	17.7 µM
CCN(CC)CCN(C(=O)C1=COCCO1)c1nc2c(OC)ccc(OC)c2s1	48.6 µM
OCCNc1nc(Nc2ccccc2Cl)nc2ccccc12	23.9 µM
CN(C)CCCN(C(=O)c1ccc(C(=O)c2ccccc2)cc1)c1nc2cc3c(cc2s1)OCO3	30 µM
CCN(CC)CCNC(=S)Nc1ccc2nc(N3CCN(CC)CC3)cc(C)c2c1	31.9 µM
COc1ccc(OC)c(Nc2nc(NCCO)c3ccccc3n2)c1	30.2 µM
Cc1ccc2nc(-c3ccc(NC(=S)NC4CC(C)(C)NC(C)(C)C4)cc3)sc2c1	23.6 µM
CCCNc1nc(NCc2cccnc2)nc(N2CCOCC2)n1	26.5 µM
Cc1ccc2sc(N(CCCN(C)C)C(=O)c3ccc(S(=O)(=O)N(C)Cc4ccccc4)cc3)nc2c1C	20.4 µM
CCCCN(CC)CCNC(=O)c1cc2c(-c3ccc(Cl)cc3)nn(C)c2s1	12.6 µM
COc1ccc(C2NCCc3c2[nH]c2ccccc32)cc1COc1ccc(F)cc1 (stereo not given)	15.2 µM
Cc1c(C(=O)Nc2ccc(S(=O)(=O)N(C)C3CCN(C)CC3)cc2)oc2c(Cl)cccc12	24.1 µM
Cc1ccc(-c2nc(C(=O)NCCCN3CCOCC3)cc3c2[nH]c2ccccc23)cc1	30.8 µM
Cc1ccc2sc(N(CCCN(C)C)C(=O)c3ccc(S(=O)(=O)N(C)C4CCCCC4)cc3)nc2c1C	34.7 µM
CC1(C)CC(NC(=O)c2ccc(Cl)c(S(=O)(=O)N(Cc3ccccc3)c3ccccc3)c2)CC(C)(C)N1	22.1 µM
COc1cc2ccccc2cc1C(=O)N(CCN(C)C)c1nc2c(OC)ccc(OC)c2s1	33.3 µM
CCCCN(CC)CCCNC(=S)Nc1ccc2nc(N3CCN(C)CC3)cc(C)c2c1	44.9 µM
CCN1CCN(c2cc(C)c3cc(NC(=O)c4ccccn4)ccc3n2)CC1	40.8 µM
CN1CCN(CCCNC(=O)c2cc3c(-c4ccc(Cl)cc4)nn(C)c3s2)CC1	7.4 µM
c1ccc(CNc2nc(NCc3ccccc3)c3ccccc3n2)cc1	7.8 µM
Cn1nc(-c2ccc(Cl)cc2)c2cc(C(=O)NCCCN3CCCCCC3)sc21	23.9 µM
C=C1Nc2cc(-c3ccc(Cl)cc3)nn2C(NCCN(C)C)=C1C	31.6 µM
Cc1cc(C)c2sc(N(CCCN(C)C)C(=O)CN3C(=O)c4ccccc4C3=O)nc2c1	26 µM
COc1ccc2oc(C(=O)c3ccccc3)c(NC(=O)CN3CCN(C)CC3)c2c1	38.3 µM
Cn1nc(-c2ccc(Cl)cc2)c2cc(C(=O)NCCCN3CCCC3)sc21	15.8 µM
COc1ccc(OC)c(Nc2nc(NCCCO)c3ccccc3n2)c1	24.6 µM

Source: PubChem BioAssay AID743275 (Broad Institute, 2014)
